Source: PubChem BioAssay AID260 (DTP/NCI, 2004)
“And” between values parts separate entries of the source, which are not always exact repeats. Equal values may be shown once. Toxic doses and inconclusive results are not listed.

Test system: CD2F1 mice, intracerebral L1210 leukemia, survival T/C
Experiment: NCI In Vivo Anticancer Drug Screen. Data for tumor model L1210 Leukemia (intracerebral) in CD2F1 (CDF1) mice
Settings: higher = longer survival
Method: The antitumor activity of compounds was measured in mice bearing transplantable tumors. Survival or tumor size were measured and the results are expressed as the measurement made in the treated group (T) divided by the measurement made in the vehicle treated control group (C). The tumor model used in this assay is L1210 Leukemia (intracerebral) in CD2F1 (CDF1) mice

With `CN(C)P1(=O)NCCCO1` (stereo unspecified) the T/C (endpoint: median survival time, dose: 80.0 mg/kg/injection, schedule: Q01DX001 (ip), vehicle: saline) was 91 % of control, the T/C (endpoint: median survival time, dose: 160.0 mg/kg/injection, schedule: Q01DX001 (ip), vehicle: saline) was 90 % of control and the T/C (endpoint: median survival time, dose: 320.0 mg/kg/injection, schedule: Q01DX001 (ip), vehicle: saline) was 92 % of control. For the same compound, the T/C (endpoint: median survival time, dose: 640.0 mg/kg/injection, schedule: Q01DX001 (ip), vehicle: saline) was 95 % of control and the T/C (endpoint: median survival time, dose: 1280.0 mg/kg/injection, schedule: Q01DX001 (ip), vehicle: saline) was 91 % of control.

`CN(Cc1cnc2nc(N)nc(N)c2n1)c1c(Cl)cc(C(=O)NC(CCC(=O)O)C(=O)O)cc1Cl` (stereo unspecified) was tested, and the T/C (endpoint: median survival time, dose: 16.0 mg/kg/injection, schedule: Q01DX005 (ip), vehicle: saline) was 101 % of control and 111 % of control, the T/C (endpoint: median survival time, dose: 32.0 mg/kg/injection, schedule: Q01DX005 (ip), vehicle: saline) was 111 % of control and the T/C (endpoint: median survival time, dose: 64.0 mg/kg/injection, schedule: Q01DX005 (ip), vehicle: saline) was 119 % of control and 120 % of control.

`Cc1ncc(CO)c(C)c1O` was tested, and the T/C (endpoint: median survival time, dose: 128.0 mg/kg/injection, schedule: Q01DX005 (ip), vehicle: Klucel (hydroxypropylcellulose) (HPC)) was 105 % of control and 106 % of control and the T/C (endpoint: median survival time, dose: 256.0 mg/kg/injection, schedule: Q01DX005 (ip), vehicle: Klucel (hydroxypropylcellulose) (HPC)) was 111 % of control and 114 % of control.

For `COC1OC(CO)C(O)C(NC(=O)N(C)N=O)C1O` (stereo unspecified), the T/C (endpoint: median survival time, dose: 0.5 mg/kg/injection, schedule: Q01DX009 (ip), vehicle: saline) was 102 % of control, the T/C (endpoint: median survival time, dose: 1.0 mg/kg/injection, schedule: Q01DX009 (ip), vehicle: saline) was 107 % of control and the T/C (endpoint: median survival time, dose: 2.0 mg/kg/injection, schedule: Q01DX009 (ip), vehicle: saline) was 111 % of control. The T/C (endpoint: median survival time, dose: 4.0 mg/kg/injection, schedule: Q01DX009 (ip), vehicle: saline) was 111 % of control, the T/C (endpoint: median survival time, dose: 8.0 mg/kg/injection, schedule: Q01DX009 (ip), vehicle: saline) was 116 % of control and the T/C (endpoint: median survival time, dose: 16.0 mg/kg/injection, schedule: Q01DX009 (ip), vehicle: saline) was 102 % of control.

For `CSCS(=O)C[C@H](CO)NC(=O)/C=C/c1c(C)[nH]c(=O)[nH]c1=O` (stereo partly specified), the T/C (endpoint: median survival time, dose: 0.06 mg/kg/injection, schedule: Q01DX005 (ip), vehicle: Klucel (hydroxypropylcellulose) (HPC)) was 97 % of control and 102 % of control, the T/C (endpoint: median survival time, dose: 0.12 mg/kg/injection, schedule: Q01DX005 (ip), vehicle: Klucel (hydroxypropylcellulose) (HPC)) was 100 % of control and 101 % of control and the T/C (endpoint: median survival time, dose: 0.25 mg/kg/injection, schedule: Q01DX005 (ip), vehicle: Klucel (hydroxypropylcellulose) (HPC)) was 100 % of control and 105 % of control. The T/C (endpoint: median survival time, dose: 0.5 mg/kg/injection, schedule: Q01DX005 (ip), vehicle: Klucel (hydroxypropylcellulose) (HPC)) was 100 % of control and 102 % of control.

With `O=C(Nc1ccccc1)c1c(O)[nH]c(=S)[nH]c1=O` the T/C (endpoint: median survival time, dose: 12.5 mg/kg/injection, schedule: Q01DX009 (ip), vehicle: saline with Tween-80) was 94 % of control, the T/C (endpoint: median survival time, dose: 25.0 mg/kg/injection, schedule: Q01DX009 (ip), vehicle: saline with Tween-80) was 98 % of control and the T/C (endpoint: median survival time, dose: 50.0 mg/kg/injection, schedule: Q01DX009 (ip), vehicle: saline with Tween-80) was 113 % of control.

For `Nc1ncn(C2OC(CO)C(O)C2O)c(=O)n1` (stereo unspecified), the T/C (endpoint: mean survival time, dose: 0.75 mg/kg/injection, schedule: Q01DX009 (ip), vehicle: saline) was 116 % of control, the T/C (endpoint: mean survival time, dose: 1.5 mg/kg/injection, schedule: Q01DX009 (ip), vehicle: saline) was 116 % of control and the T/C (endpoint: mean survival time, dose: 3.0 mg/kg/injection, schedule: Q01DX009 (ip), vehicle: saline) was 120 % of control. The T/C (endpoint: median survival time, dose: 0.28 mg/kg/injection, schedule: Q03HX024 (ip), vehicle: saline) was 100 % of control, the T/C (endpoint: median survival time, dose: 0.5 mg/kg/injection, schedule: Q01DX005 (ip), vehicle: water) was 103 % of control and the T/C (endpoint: median survival time, dose: 0.59 mg/kg/injection, schedule: Q03HX024 (ip), vehicle: saline) was 151 % of control. For the same compound, the T/C (endpoint: median survival time, dose: 1.0 mg/kg/injection, schedule: Q01DX005 (ip), vehicle: water) was 103 % of control, the T/C (endpoint: median survival time, dose: 1.17 mg/kg/injection, schedule: Q03HX024 (ip), vehicle: saline) was 261 % of control and the T/C (endpoint: median survival time, dose: 2.0 mg/kg/injection, schedule: Q01DX005 (ip), vehicle: water) was 114 % of control. The T/C (endpoint: median survival time, dose: 2.25 mg/kg/injection, schedule: Q03HX024 (ip), vehicle: saline) was 170 % of control, the T/C (endpoint: median survival time, dose: 2.34 mg/kg/injection, schedule: Q03HX024 (ip), vehicle: saline) was 293 % of control and the T/C (endpoint: median survival time, dose: 3.12 mg/kg/injection, schedule: Q01DX009 (ip), vehicle: saline) was 213 % of control. For the same compound, the T/C (endpoint: median survival time, dose: 4.5 mg/kg/injection, schedule: Q03HX024 (ip), vehicle: saline) was 113 % of control, the T/C (endpoint: median survival time, dose: 4.69 mg/kg/injection, schedule: Q03HX024 (ip), vehicle: saline) was 363 % of control and the T/C (endpoint: median survival time, dose: 6.0 mg/kg/injection, schedule: Q01DX009 (ip), vehicle: saline) was 173 % of control. The T/C (endpoint: median survival time, dose: 6.25 mg/kg/injection, schedule: Q01DX009 (ip), vehicle: saline) was 214 % of control, the T/C (endpoint: median survival time, dose: 8.0 mg/kg/injection, schedule: Q01DX005 (ip), vehicle: water) was 98 % of control and the T/C (endpoint: median survival time, dose: 9.38 mg/kg/injection, schedule: Q03HX024 (ip), vehicle: saline) was 681 % of control. The T/C (endpoint: median survival time, dose: 12.0 mg/kg/injection, schedule: Q01DX009 (ip), vehicle: saline) was 102 % of control, the T/C (endpoint: median survival time, dose: 12.5 mg/kg/injection, schedule: Q01DX009 (ip), vehicle: saline) was 250 % of control and 284 % of control and 325 % of control and the T/C (endpoint: median survival time, dose: 18.75 mg/kg/injection, schedule: Q03HX024 (ip), vehicle: saline) was 681 % of control. The T/C (endpoint: median survival time, dose: 25.0 mg/kg/injection, schedule: Q01DX009 (ip), vehicle: saline) was 298 % of control and 300 % of control and 348 % of control, the T/C (endpoint: median survival time, dose: 50.0 mg/kg/injection, schedule: Q01DX009 (ip), vehicle: saline) was 290 % of control and 295 % of control and 334 % of control and the T/C (endpoint: median survival time, dose: 75.0 mg/kg/injection, schedule: Q03HX024 (ip), vehicle: saline) was 98 % of control. The T/C (endpoint: median survival time, dose: 100.0 mg/kg/injection, schedule: Q01DX009 (ip), vehicle: saline) was 348 % of control and 378 % of control and 386 % of control, the T/C (endpoint: median survival time, dose: 200.0 mg/kg/injection, schedule: Q01DX009 (ip), vehicle: saline) was 151 % of control and 209 % of control and the T/C (endpoint: median survival time, dose: 400.0 mg/kg/injection, schedule: Q01DX009 (ip), vehicle: saline) was 181 % of control.

For `CC1CC(C)(O)CC(C(O)CC2CC(=O)NC(=O)C2)C1=O` (stereo unspecified), the T/C (endpoint: mean survival time, dose: 0.02 mg/kg/injection, schedule: Q01DX009 (ip), vehicle: saline) was 97 % of control, the T/C (endpoint: mean survival time, dose: 0.04 mg/kg/injection, schedule: Q01DX009 (ip), vehicle: saline) was 92 % of control and the T/C (endpoint: mean survival time, dose: 0.08 mg/kg/injection, schedule: Q01DX009 (ip), vehicle: saline) was 110 % of control. The T/C (endpoint: mean survival time, dose: 0.16 mg/kg/injection, schedule: Q01DX009 (ip), vehicle: saline) was 100 % of control and the T/C (endpoint: mean survival time, dose: 0.32 mg/kg/injection, schedule: Q01DX009 (ip), vehicle: saline) was 106 % of control.

`O=C1C=C(N2CC2)C(=O)C=C1N1CC1` was tested, and the T/C (endpoint: mean survival time, dose: 0.12 mg/kg/injection, schedule: Q01DX009 (ip), vehicle: saline) was 102 % of control and 103 % of control and 104 % of control, the T/C (endpoint: mean survival time, dose: 0.25 mg/kg/injection, schedule: Q01DX009 (ip), vehicle: saline) was 102 % of control and 103 % of control and 108 % of control and the T/C (endpoint: mean survival time, dose: 0.5 mg/kg/injection, schedule: Q01DX009 (ip), vehicle: saline) was 103 % of control and 106 % of control and 108 % of control. For the same compound, the T/C (endpoint: mean survival time, dose: 1.0 mg/kg/injection, schedule: Q01DX009 (ip), vehicle: saline) was 89 % of control and 90 % of control and 98 % of control.

With `CS(C)=O` the T/C (endpoint: median survival time, dose: 1000.0 mg/kg/injection, schedule: Q01DX005 (ip), vehicle: saline) was 101 % of control and 106 % of control, the T/C (endpoint: median survival time, dose: 1.5 grams/kg/injection, schedule: Q01DX009 (ip), vehicle: saline) was 104 % of control and the T/C (endpoint: median survival time, dose: 2000.0 mg/kg/injection, schedule: Q01DX005 (ip), vehicle: saline) was 98 % of control and 102 % of control. The T/C (endpoint: median survival time, dose: 3.0 grams/kg/injection, schedule: Q01DX009 (ip), vehicle: saline) was 102 % of control, the T/C (endpoint: median survival time, dose: 4000.0 mg/kg/injection, schedule: Q01DX005 (ip), vehicle: saline) was 98 % of control and 102 % of control and the T/C (endpoint: median survival time, dose: 6.0 grams/kg/injection, schedule: Q01DX009 (ip), vehicle: saline) was 104 % of control and 107 % of control. The T/C (endpoint: median survival time, dose: 8000.0 mg/kg/injection, schedule: Q01DX005 (ip), vehicle: saline) was 118 % of control and 107 % of control.

For `CCCCCC(=O)O[C@]1(C(C)=O)CC[C@H]2[C@@H]3CCC4=CC(=O)CC[C@]4(C)[C@H]3CC[C@@]21C`, the T/C (endpoint: median survival time, dose: 8.0 mg/kg/injection, schedule: Q01DX009 (ip), vehicle: saline with Tween-80) was 117 % of control, the T/C (endpoint: median survival time, dose: 16.0 mg/kg/injection, schedule: Q01DX009 (ip), vehicle: saline with Tween-80) was 104 % of control and the T/C (endpoint: median survival time, dose: 32.0 mg/kg/injection, schedule: Q01DX009 (ip), vehicle: saline with Tween-80) was 114 % of control. For the same compound, the T/C (endpoint: median survival time, dose: 64.0 mg/kg/injection, schedule: Q01DX009 (ip), vehicle: saline with Tween-80) was 94 % of control, the T/C (endpoint: median survival time, dose: 128.0 mg/kg/injection, schedule: Q01DX009 (ip), vehicle: saline with Tween-80) was 93 % of control and the T/C (endpoint: median survival time, dose: 256.0 mg/kg/injection, schedule: Q01DX009 (ip), vehicle: saline with Tween-80) was 94 % of control. For the same compound, the T/C (endpoint: median survival time, dose: 512.0 mg/kg/injection, schedule: Q01DX009 (ip), vehicle: saline with Tween-80) was 107 % of control.

`N[C@H](C(=O)O)[C@H]1ON=C(Cl)[C@@H]1O` was tested, and the T/C (endpoint: mean survival time, dose: 256.0 mg/kg/injection, schedule: Q01DX009 (ip), vehicle: saline) was 118 % of control, the T/C (endpoint: mean survival time, dose: 512.0 mg/kg/injection, schedule: Q01DX009 (ip), vehicle: saline) was 98 % of control and the T/C (endpoint: mean survival time, dose: 1024.0 mg/kg/injection, schedule: Q01DX009 (ip), vehicle: saline) was 98 % of control.
